One series has as its system rat cardiomyocytes. The settings on record: inhibition of adenosine deaminase alone; cited from earlier work.
Series [1] has as its system isolated guinea pig hearts. To be noted: in the absence of ADA inhibition; cited from earlier work.
The test system of a further series is ischemic cerebral injury. To be noted: in vivo; cited from earlier work.
A further series has as its system mice. The settings on record: cited from earlier work.
In another series the test system is isolated rat hearts. The settings on record: alone, cited from earlier work.
Another series concerns Female SA rats. Description: Liver toxicity assay. The format is in vivo. The settings on record: rat, i.v. infusion, total dose 75 μmole/kg, serum. The method, then:
Female SA rats (150-200 g) are anesthetized with halothane and cannulated via the internal jugular vein. The animals are allowed to recover for 3 days. At this time, 37.5 μmole/kg of an AK inhibitor is dissolved in 50% PEG400 and infused through the jugular catheter over 20 minutes. Twelve hours later, an additional 37.5 μmole/kg is infused over 20 minutes (total dose =75 μmole/kg). […] Liver enzymes (serum glutamic-oxaloacetic transaminase (SGOT), serum glutamic-pyruvic transaminase (SGPT), alkaline phosphatase) and total bilirubin in the serum samples are determined by a commercial laboratory.

The next series relates to Rats (carrageenan paw). Description: Anti-inflammatory activity, carrageenan paw swelling. The format is in vivo. To be noted: rat, 10 mg/kg, swelling after 3 hours; for Carrageenan Paw (% inhibition) po: oral gavage. As for the experimental part:
Carrageenan (Type λ) was suspended in sterile PBS at 1% (w/v), autoclaved for 30 minutes, and stored at room temperature. Rats were pretreated with vehicle or AK inhibitor (10 mg/kg) by oral gavage or i.p. administration and the volume of the left hind paw was measured using a water displacement plethysmometer (Stoelting Co., Wood Dale, Ill.). One hour after oral treatment or 30 minutes after i.p. treatment, the rats were briefly anesthetized, and 0.1 ml of the carrageenan solution was injected subcutaneously into the planar surface of the left hind paw. The ensuing paw swelling was measured by plethysmometry after 3 hours. The paw volume in millileters was […]. Data are presented in Table 2 as the percent inhibition of paw swelling in AK inhibitor treated animals, compared to vehicle treated control animals.

Series [2] concerns male SA rats (maximal electroshock seizures). Nature of the series: Anticonvulsant activity, maximal electroshock seizures (MES). The format is in vivo. The settings on record: rat, po, fasted; >> = no activity at the stated dose. The method, then: The anticonvulsant activity of the tested compounds was evaluated in male SA rats (100-150g, Simonsen) using the maximal electroshock (MES) model described in Swinyard et al., Antiepileptic Drugs, 3d Ed. at 85-102 (Levy, et al., eds.), NY: Raven Press (1989). The rats were maintained on a 12/12 light/dark cycle in temperature controlled facilities with free access to food and water. For p.o. administration, the animals are fasted overnight, prior to the experiment. One to two hours prior to seizure testing, the animals were injected interperitoneally (ip) or orally (per os, po) with one of various doses of test compound dissolved in DMSO or PEG 400.
This endpoint was expressed as the percentage of animals in which the response was inhibited.

Series [3] addresses partially purified pig heart adenosine kinase or recombinant human adenosine kinase. Description: AK inhibition. The format is biochemical. The settings on record: 0.5 μM [U-14C] adenosine, pH 7.0, 37° C., 20 minutes. The method, then:
Adenosine kinase activity was measured essentially as described by Yamada et al. Biochim. Biophys. Acta 660, 36-43 (1988) with a few minor modifications. Assay mixtures contained 50 mM TRIS-maleate buffer, pH 7.0, 0.1% BSA, 1 mM ATP 1 mM MgCl2, 0.5 μM [U-^14 C] adenosine (400-600 mCi/mmol) and varying duplicate concentrations of inhibitor. […] The amount of ^14 C-AMP was quantified by scintillation counting.

pIC50: −log10 of the molar value. Structures can show the parent of a compound that is named as a salt. Where two headings read alike, the source gives them in different places. Where only a bound is given, the exact number is not on record here.

Regarding `OC[C@H]1O[C@@H](n2cnc3c2N=CNC[C@H]3O)C[C@@H]1O` [2'-deoxycoformycin], the adenosine release result in the series on rat cardiomyocytes is recorded as “no effect on adenosine release”.
On to `NC[C@H]1O[C@@H](n2cnc3c(N)ncnc32)[C@H](O)[C@@H]1O` [5'-amino-5'-deoxyadenosine], for which, in series [1], the “effect on adenosine release” value is “not apparent”.
`Nc1ncnc2c1c(I)cn2[C@@H]1O[C@H](CO)[C@@H](O)[C@H]1O` [5-iodotubercidin]: in the series on ischemic cerebral injury, the “protection against ischemic cerebral injury” value is given as “does not protect against ischemic cerebral injury”. Also, in the series with mice, the “flaccidity (skeletal muscle relaxation)” value is on record as “pronounced general flaccidity”. Also, the perfusate adenosine concentration result with isolated rat hearts (hypoxic, anoxic or ischemic conditions) is listed as “no increase in perfusate adenosine concentration”; in the series on isolated rat hearts (normoxic conditions), “no increase in perfusate adenosine concentration”.
On to `C[C@H]1O[C@@H](n2cc(-c3ccccc3)c3c(Nc4ccc(CN(C)C)cc4)ncnc32)[C@H](O)[C@@H]1O` [Compound 1, 4-N-(4-(N,N-Dimethylaminomethyl)phenyl)amino-5-phenyl-7-(5-deoxy-β-D-ribofuranosyl)pyrrolo[2,3-d]pyrimidine], for which, in the series with Female SA rats, the “Alkaline Phosphatase” value came to 131 IU/L, the SGOT is listed as 75 IU/L and the SGPT came to 44 IU/L. Further, the “Carrageenan Paw (% inhibition) ip” value in the series with Rats (carrageenan paw) was 26.0%.
In [2], `CCN(CC)CCNCCc1ccc(Nc2ncnc3c2c(-c2ccccc2)cn3[C@@H]2O[C@H](C)[C@@H](O)[C@H]2O)cc1` [Compound 5, 4-N-[4-(2-(2-N,N-diethylaminoethyleneamino)ethyl)phenyl]amino-5-phenyl-7-(5-deoxy-β-D-ribofuranosyl)pyrrolo[2,3-d]pyrimidine] showed an ED50 greater than 10 mg/kg. Also, the pIC50 in series [3] was 9.00. For the same compound, in the series with Rats (carrageenan paw), the “Carrageenan Paw (% inhibition) ip” value is listed as 0.0% and the “Carrageenan Paw (% inhibition) po” value stood at 4.1%.
With `CCN(CC)CCc1ccc(Nc2ncnc3c2c(-c2ccccc2)cn3[C@@H]2O[C@H](C)[C@@H](O)[C@H]2O)cc1` [Compound 6, 4-N-[4-(2-N,N-diethylaminoethyl)phenyl]amino-5-phenyl-7-(5-deoxy-β-D-ribofuranosyl)pyrrolo[2,3-d]pyrimidine], in the series on Female SA rats, the “Alkaline Phosphatase” value came out at 104 IU/L, the SGOT amounted to 306 IU/L, the SGPT worked out at 110 IU/L and the “Total Bilirubin” value is 0.43 mg/dL. Besides, in series [3], the pIC50 is 9.00. In addition, in the series with Rats (carrageenan paw), the “Carrageenan Paw (% inhibition) ip” value amounted to 81.5% and the “Carrageenan Paw (% inhibition) po” value stood at 42.6%.
As for `OC[C@@H]1O[C@@H](n2cc(-c3ccccc3)c3c(Nc4ccc(CCN5CCNCC5)cc4)ncnc32)[C@H](O)[C@@H]1O` [Compound 12, 4-N-[4-(1-piperazinoethyl)phenyl]amino-5-phenyl-7-α-L-lyxofuranosylpyrrolo[2,3-d]pyrimidine], in the series on Female SA rats, the “Alkaline Phosphatase” value is recorded as 106 IU/L, the SGOT is 211 IU/L, the SGPT came to 76 IU/L and the “Total Bilirubin” value is 0.41 mg/dL. The pIC50 in [3] was 9.52. Further, in the series on Rats (carrageenan paw), the “Carrageenan Paw (% inhibition) ip” value came to 58.8% and the “Carrageenan Paw (% inhibition) po” value was determined as 51.0%.
Consider `C[C@H]1O[C@@H](n2cc(-c3ccccc3)c3c(NCc4ccncc4)ncnc32)[C@H](O)[C@@H]1O` [Compound 49, 4-N-(4-pyridylmethyl)amino-5-phenyl-7-(5-deoxy-1-β-D-ribofuranosyl)-pyrrolo[2,3-d]pyrimidine], for which the median effective dose (ED50) in series [2] was greater than 40 mg/kg. In series [3], the pIC50 was 7.17.
Take `C[C@H]1O[C@@H](n2cc(-c3cccc(NC(=N)N)c3)c3c(Nc4ccc(F)cc4)ncnc32)[C@H](O)[C@@H]1O` [Compound 206, 4-N-(4-fluorophenyl)amino-5-(3-guanidinophenyl)-7-(5-deoxy-1-β-D-ribofuranosyl)pyrrolo[2,3-d]pyrimidine]: the pIC50 in series [3] was 8.15. Further, in the series with Rats (carrageenan paw), the “Carrageenan Paw (% inhibition) ip” value is 10.1% and the “Carrageenan Paw (% inhibition) po” value worked out at 23.5%.
The corresponding values for `C[C@H]1O[C@@H](n2cc(-c3ccccc3)c3c(Nc4ccc(C(=O)O)cc4)ncnc32)[C@H](O)[C@@H]1O` [Compound 209, 4-N-(4carboxyphenyl)amino-5-phenyl-7-(5-deoxy-1-β-D-ribofuranosyl)pyrrolo[2,3-d]pyrimidine] are 7.10, 22.0% and 0.0%.
As for `C[C@H]1O[C@@H](n2cc(-c3ccccc3)c3c(Nc4ccc(C(=O)N5CCNCC5)cc4)ncnc32)[C@H](O)[C@@H]1O` [Compound 210, 4-N-[4-(4-piperazinocarbonylphenyl)]amino-5-phenyl-7-(5-deoxy-1-β-D-ribofuranosyl)pyrrolo[2,3-d]pyrimidine], the pIC50 in [3] is 8.70. Also, in the series on Rats (carrageenan paw), the “Carrageenan Paw (% inhibition) ip” value amounted to 23.8% and the “Carrageenan Paw (% inhibition) po” value is on record as 0.0%.
The corresponding values for `C[C@H]1O[C@@H](n2cc(-c3ccccc3)c3c(Nc4ccc(C(=O)NN5CCCCC5)cc4)ncnc32)[C@H](O)[C@@H]1O` [Compound 212] are 8.70, 1.8% and 0.0%.
The corresponding values for `C[C@H]1O[C@@H](n2cc(-c3ccccc3)c3c(Nc4ccc(CCS(=O)(=O)O)cc4)ncnc32)[C@H](O)[C@@H]1O` [Compound 265, 4-N[4-(2-Sulfonyloxyethyl)phenylamino]-5-phenyl-7-(5-deoxy-1-β-D-ribofuranosyl)pyrrolo[2,3-d]pyrimidine] are 8.70, 10.0% and 6.2%.
As to `C[C@H]1O[C@@H](n2cc(-c3ccccc3)c3c(Nc4ccc(CCNC(=N)N)cc4)ncnc32)[C@H](O)[C@@H]1O` [Compound 267, 4-N-[4-(2-Guanidinoethyl)phenyl]amino-5-phenyl-7-(5-deoxy-1-β-D-ribofuranosyl)pyrrolo[2,3-d]pyrimidine hydrochloride], the pIC50 in series [3] was 9.00. In the series on Rats (carrageenan paw), the “Carrageenan Paw (% inhibition) ip” value was 52.3% and the “Carrageenan Paw (% inhibition) po” value is 15.4%.
The corresponding values for `C[C@H]1O[C@@H](n2cc(-c3ccccc3)c3c(Nc4ccc(CCNC(=O)c5cccnc5)cc4)ncnc32)[C@H](O)[C@@H]1O` [Compound 268, 4-N-[2-(Nicotinylaminoethyl)phenyl]amino-5-phenyl-7-(5-deoxy-1-β-D-ribofuranosyl)pyrrolo(2,3-d)pyrimidine] are 9.00, 0.0% and 7.1%.
For the compound `C[C@H]1O[C@@H](n2cc(I)c3c(N)ncnc32)[C@H](O)[C@@H]1O` [REF.A, reference compound], in the series on Female SA rats, the SGPT stood at 76 IU/L and the “Total Bilirubin” value was determined as 0.76 mg/dL. Also, the “flaccidity (skeletal muscle relaxation)” value in the series on mice is reported as “pronounced general flaccidity”.
For `NC[C@H]1O[C@@H](n2nc(Br)c3c(N)ncnc32)[C@H](O)[C@@H]1O` [REF.B, 4amino-1-(5-amino-5-deoxy-1-D-ribofuranosyl)-3-bromopyrazolo[3,4d]pyrimidne HCL, reference compound], in the series with Female SA rats, the SGOT is on record as 100 IU/L, the SGPT turned out to be 41 IU/L and the “Total Bilirubin” value is 0.30 mg/dL.

The values are drawn from patent US5795977A, “Water soluble adenosine kinase inhibitors” (Metabasis Therapeutics, Inc., priority 1996, dated 1998).
